Key:
Type in all cases: cell-based, human
sTNFα production = assay: NB-monocyte co-culture, TNFα ELISA of supernatant; conditions: 24 hours
Protocol: (§1) Monocytes were directly cultured with wild-type or TNF, TNFR1, TNFR2 KO NB cell lines in ULA plates for 24 hours. Activation of NF-kB in monocytes and NB was measured by flow cytometry and cytokine production measured by ELISA from co-culture supernatant. To evaluate the contact-dependence of monocyte activation by NB, monocytes were cultured in ULA plates with seven-day NB conditioned medium mixed 1:1 with complete monocyte medium for 24 hours and analyzed for IL-6 production. To assess the growth advantage of NB cultured with monocytes, NB-luc cell lines and monocytes were seeded in tissue culture-treated white 96-well plates (1:1 ratio) and cultured for four days. Luminescence was measured using a TECAN Spark plate reader (TECAN). To evaluate changes in proliferation, NB was pulsed for 10 minutes in CellTrace Violet (2 μM, Invitrogen) and seeded at 100,000 cells per well in a 12-well tissue culture-treated plate. Monocytes were added directly to the NB monolayer at a density of 100,000 per well and incubated for four days. CellTrace Violet expression was analyzed by flow cytometry.
Cytokines released by monocytes were detected within co-culture supernatants using the Human TNF-alpha Quantikine ELISA Kit (TNFα, R&D Systems) and the Human IL-6 Quantikine ELISA Kit (IL-6, R&D Systems) according to manufacturer's guidelines. ELISA plates were read using a TECAN Spark plate reader (TECAN). Global cytokine regulation was evaluated using a custom Luminex panel containing the following cytokines: CX3CL1, CXCL10, EGF, FGF-2, Flt3L, G-CSF, GM-CSF, IL-1α, IL-1β, IL-1Ra, IL-4, IL-6, IL-8, IL-10, IL-12 (p40), IL-12 (p′70), M-CSF, MCP-1, MCP-3, MDC, MIP-1α, MIP-1β, TGFα, TNFα, TNFβ, and VEGF-A (Human Cytokine Panel A, Millipore-Sigma).

[1] = test system: NF-κB signaling in monocytes; assay: Intracellular IκBα in monocyte population of co-culture (PhosFlow flow cytometry); conditions: 10 μg/mL etanercept
Protocol: as §1
(§2) To evaluate the expression of TNFα in NB and monocytes, cells were first stimulated with LPS (50 ng/mL) in the presence of GolgiStop (BD Biosciences) and fixed using CytoFix/Cytoperm buffer (BD Biosciences). Cells were then stained with TNFα-PE (BD Biosciences). To evaluate the expression of TNFR1 and TNFR2 on NB and monocytes, cells were stained with TNFR1-BV421 and TNFR2-APC (BD Biosciences) in FACS staining buffer containing 0.05% sodium azide to prevent receptor/antibody processing. To estimate changes in NF-kB expression, treated co-cultures were first stained with ZombieViolet (1 μL/test, Biolegend) to counterstain dead cells and APC-H7 CD45 and/or FITC-CD14 to label monocytes for 20 minutes at room temperature. […] All flow samples were run using an LSRII 5-laser flow cytometer (Texas Children's Hospital Cancer Center Flow Cytometry Core, Houston, Tex.) and analyzed using FlowJo Software (Treestar).

[2] = test system: NF-κB signaling in NB cells; assay: Intracellular IκBα in NB population of co-culture (PhosFlow flow cytometry)
Protocol: as §1, §2

CHLA-255-luc = assay: NB luminescence growth/viability in monocyte co-culture; conditions: 10 μg/mL etanercept
Protocol: (FIG. 8A) Luciferase expressing CHLA-255-luc and SK-NAS-luc were cultured in 1-16,000 pg/mL rhTNF for 48 hours and viability of the cells was measured by luminescence. Data was normalized to untreated control and graphed as % Viability versus Log10 of TNF concentration.
(15A) TNFα level within co-culture supernatant was determined by TNFα ELISA. Mean TNFα concentration±SD of representative data from two monocyte donors run in triplicate. (FIG. 15B) Supernatant IL-6 levels were determined by ELISA. Mean IL-6 concentration±SD of representative data from two monocyte donors run in triplicate (FIG. 15C) Intracellular IκBα expression level within CD14+GD2− monocyte population was determined by flow cytometry and IκBα MFI was normalized to monocyte only control. Mean normalized IκBα MFI±SD and representative from experiments with two monocyte donors run in triplicate. (FIG. 15D) Intracellular IκBα expression level within CD14-GD2+NB population was determined by flow cytometry and IκBα MFI was normalized to NB only control. Mean normalized IκBαMFI±SD, representative from experiments with two monocyte donors run in triplicate. (FIG. 15E) Multiplex Luminex cytokine assay was performed on co-culture supernatants. […] NB luminescence was used to evaluate relative viability of cell line. Results are normalized mean luminescence±SD, n=6 replicates per condition. […] Cells undergoing multiple (2+) divisions were quantified as a percentage of total cells and normalized to NB (0) and Ctrl (1). […]
Monocytes were directly cultured with wild-type or TNF, TNFR1, TNFR2 KO NB cell lines in ULA plates for 24 hours. Activation of NF-kB in monocytes and NB was measured by flow cytometry and cytokine production measured by ELISA from co-culture supernatant. To evaluate the contact-dependence of monocyte activation by NB, monocytes were cultured in ULA plates with seven-day NB conditioned medium mixed 1:1 with complete monocyte medium for 24 hours and analyzed for IL-6 production. […] Luminescence was measured using a TECAN Spark plate reader (TECAN). […] CellTrace Violet expression was analyzed by flow cytometry.

etanercept
sTNFα production (sTNFα production; CHLA-255 + monocytes, 10 μg/mL etanercept, vs IgG control (FIG. 15A)): almost entirely blocked | TNFα level in co-culture supernatant (sTNFα production; SK-N-AS + monocytes, vs IgG control): decrease | reversal of IκBα degradation in monocytes ([1]; CHLA-255 + monocytes, 24 hours (FIG. 15C)): complete | IκBα levels in monocytes ([1]; SK-N-AS + monocytes, 24 hours): increasing monocyte levels of IκBα | reversal of IκBα degradation in NB ([2]; CHLA-255 + monocytes, 10 μg/mL etanercept, 24 hours (FIG. 15D)): partial | IκBα levels in NB cells ([2]; SK-N-AS + monocytes, etanercept, 24 hours): restored IκBα levels to the levels found in NB cells cultured alone | monocyte-induced proliferation above baseline (luminescence) (CHLA-255-luc; CHLA-255-luc + monocytes, 72 hours (FIG. 8B)): reduces this | NB luminescence (growth/viability) increase induced by monocytes (CHLA-255-luc; CHLA-255-luc + monocytes, 72 hours, vs IgG control (FIG. 15F)): completely abrogated the effect of monocytes on NB cells | effect of monocyte-induced TNF signaling on NB cells (CHLA-255-luc; CHLA-255-luc and SK-N-AS-luc + monocytes, 72 hours (FIG. 8B)): reversed the effect of monocyte-induced TNF signaling on NB cells

Reference: patent US20230103554A1, “TNFa SIGNALING [sequence] TUMOR-PROMOTING INFLAMMATION THAT CAN BE TARGETED TO THERAPY” (Baylor College of Medicine, priority 2020, published 2023)
